Experimental data as given in patent US20210178009A1, “WOUND CARE PRODUCTS COMPRISING ALEXIDINE” (TELEFLEX MEDICAL INCORPORATED, priority 2015, published 2021).

Legend:
Experiment in all cases: Time to kill comparison
Format in all cases: cell-based
[1] = system: Candida albicans; conditions: 128 ppm; for exposure time to complete kill: C. albicans, challenge 10^4-10^5 CFU/mL; for Number of Microbial Colonies: Candida albicans, 5 replicates, TNTC = too numerous to count
Description: (§1) Alexidine and Chlorhexidine, both at a concentration of 128 ppm were exposed to a Gram positive bacteria (Staphylococcus aureus), a Gram negative bacteria (Pseudomonas aeruginosa), and a fungus (Candida albicans). The challenge concentration for each organism was 10^4-10^5 CFU/mL, and the exposure time varied from 0.5-60 minutes. […] Complete kill of all three organisms was observed within 0.5-1 minute of Alexidine exposure.

[2] = system: Pseudomonas aeruginosa; conditions: P. aeruginosa, 128 ppm, challenge 10^4-10^5 CFU/mL
Description: as §1

[3] = system: Staphylococcus aureus; conditions: 128 ppm; for exposure time to complete kill: S. aureus, challenge 10^4-10^5 CFU/mL; for Number of Microbial Colonies: Staphylococcus aureus, 5 replicates, TNTC = too numerous to count
Description: as §1

SMILES	exposure time to complete kill [1] [min]	exposure time to complete kill [2] [min]	exposure time to complete kill [3] [min]	Number of Microbial Colonies ([1]; exposure 0.5 minutes)	Number of Microbial Colonies ([1]; exposure 1 minute)	Number of Microbial Colonies ([1]; exposure 5 minutes)	Number of Microbial Colonies ([3]; exposure 0.5 minutes)	Number of Microbial Colonies ([3]; exposure 1 minute)	Number of Microbial Colonies ([3]; exposure 5 minutes)
CCCCC(CC)CNC(=N)NC(=N)NCCCCCCNC(=N)NC(=N)NCC(CC)CCCC (stereo not drawn) [Alexidine]	0.5 to 1	0.5 to 1	0.5 to 1						
[H]/N=C(\N/C(=N/[H])NCCCCCCNC(=N)NC(=N)Nc1ccc(Cl)cc1)Nc1ccc(Cl)cc1 [Chlorhexidine]	60	5	60	TNTC	TNTC	TNTC	TNTC	TNTC	TNTC
